Data set [1] concerns the target T1, rat-derived α2,3-N-sialyltransferase (Rattus norvegicus, UniProt Q02734).
T1 construct: purchased Calbiochem
T1 sequence (Q02734 1-374): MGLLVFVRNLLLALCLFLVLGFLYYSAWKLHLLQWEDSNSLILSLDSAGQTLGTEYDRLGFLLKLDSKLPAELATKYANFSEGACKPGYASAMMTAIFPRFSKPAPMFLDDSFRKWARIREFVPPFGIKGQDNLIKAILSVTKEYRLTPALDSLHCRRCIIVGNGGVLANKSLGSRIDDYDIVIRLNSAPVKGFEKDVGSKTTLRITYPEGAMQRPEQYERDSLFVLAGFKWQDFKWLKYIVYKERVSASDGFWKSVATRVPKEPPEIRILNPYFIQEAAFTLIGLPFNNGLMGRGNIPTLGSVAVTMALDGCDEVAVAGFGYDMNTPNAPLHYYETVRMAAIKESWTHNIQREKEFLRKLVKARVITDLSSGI
The data set is described as follows: Kinetic analysis of α2,3-sialyltransfer reaction to 4MU-4F-LacNAc. The format is biochemical. The following applies: for Activity: α2,3-sialyltransferase. As for the experimental part:
(§1) The mixture was allowed to react at 25° C.
Precisely 60 minutes after initiation of the reaction, the reaction was terminated through addition of 80% acetonitrile (4 times in volume) and vigorous stirring. The reaction mixture was diluted, and the diluted product was analyzed through HPLC. […] Note that “1U” was defined as an enzyme amount which realizes sialylated sugar to form in an amount of 1 μmol/min under the above conditions.
The mixture was allowed to react at 25° C. for eight minutes.

The target in data set [2] is T2, rat-derived α2,6-N-sialyltransferase (Rattus norvegicus, UniProt P13721).
T2 construct: purchased Calbiochem
T2 sequence (P13721 1-403): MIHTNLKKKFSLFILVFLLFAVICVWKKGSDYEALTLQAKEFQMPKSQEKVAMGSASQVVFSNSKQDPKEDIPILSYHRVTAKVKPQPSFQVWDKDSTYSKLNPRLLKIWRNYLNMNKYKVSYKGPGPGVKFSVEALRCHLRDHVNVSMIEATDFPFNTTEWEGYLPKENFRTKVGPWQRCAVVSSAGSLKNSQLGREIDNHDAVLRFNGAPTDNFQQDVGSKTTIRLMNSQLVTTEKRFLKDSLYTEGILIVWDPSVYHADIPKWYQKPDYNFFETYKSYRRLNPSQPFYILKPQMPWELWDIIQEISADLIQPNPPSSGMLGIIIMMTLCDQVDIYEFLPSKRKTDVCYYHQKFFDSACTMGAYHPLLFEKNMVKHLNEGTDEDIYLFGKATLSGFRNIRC
Put plainly: Kinetic analysis of α2,6-sialyltransfer reaction to 4MU-4F-LacNAc. The format is biochemical. Particulars: for Activity: α2,6-sialyltransferase. The method, then: as §1
Precisely 120 minutes after initiation of the reaction, the reaction was terminated through addition of 1M NaOH (⅕ times in volume). The reaction mixture was neutralized and diluted with an HPLC eluent, and the diluted product was analyzed through HPLC. […] Note that “1U” was defined as an enzyme amount which realizes formation of sialylated sugar in an amount of 1 μmol/min under the above conditions.
The mixture was allowed to react at 25° C. for 10 minutes.
The enzymatic activity values at respective concentrations are compared.

In data set [3] the target is T1, rat-derived α2,3-N-sialyltransferase. The data set is described as follows: Enzymatic α2,3-sialyltransfer reaction to pyridylaminated (PA) 4F-galactosylchitobiose, HPLC percent conversion. The data set is classed as biochemical. The following applies: 10 μM acceptor, 100 μM CMP-NeuAc, 100 mU/mL enzyme, 25° C.; percent conversion compared with PA galactosylchitobiose. As for the experimental part: To a 10 mM HEPES-NaOH buffer (pH 7.5) containing 10 mM manganese chloride, 100 mM sodium chloride, 100 μM CMP-NeuAc, 0.02% (w/v) BSA, and 10 μM pyridylaminated (PA) 4F-galactosylated chitobiose, rat-derived α2,3-N-sialyltransferase (product of Calbiochem) (100 mU/mL-reaction mixture) was added, and the mixture was allowed to react at 25° C. In a similar manner, a similar mixture employing pyridylaminated (PA) galactosylated chitobiose as an acceptor was allowed to react as a control reaction.
An aliquot was sampled from the reaction mixture at hour 2.5 and hour 24 after initiation of the reaction. Finally, the reaction was terminated through addition of 10 mM sodium phosphate (pH 4.3) (9 times in volume) and vigorous stirring. The product was analyzed through HPLC employing a C30-UG-5 column. […] A fraction corresponding to each peak was collected and dried under reduced pressure. […] Mass analysis detected, in the reaction employing pyridylaminated (PA) 4F-galactosylchitobiose, an [M+H]^+ peak (m/z 959.45), thereby confirming formation of compound 17. Also, in the reaction employing pyridylaminated (PA) galactosyl chitobiose, an [M+H]^+ peak (m/z 957.31) was detected, thereby confirming formation of compound 18. […]

The target in data set [4] is T2, rat-derived α2,6-N-sialyltransferase. The data set is described as follows: Enzymatic α2,6-sialyltransfer reaction to pyridylaminated (PA) 4F-galactosylchitobiose, HPLC percent conversion. The data set is classed as biochemical. Particulars: 10 μM acceptor, 100 μM CMP-NeuAc, 40 mU/mL enzyme, 25° C.; percent conversion compared with PA galactosylchitobiose. The method, then: To a 10 mM HEPES-NaOH buffer (pH 7.5) containing 10 mM manganese chloride, 100 mM sodium chloride, 100 μM CMP-NeuAc, 0.02% (w/v) BSA, and 10 μM pyridylaminated (PA) 4F-galactosylated chitobiose, rat-derived α2,6-N-sialyltransferase (product of Calbiochem) (40 mU/mL-reaction mixture) was added, and the mixture was allowed to react at 25° C. In a similar manner, a similar mixture employing pyridylaminated (PA) galactosylated chitobiose as an acceptor was allowed to react as a control reaction.
An aliquot was sampled from the reaction mixture at hour 1, hour 2.5, hour 8, and hour 24 after initiation of the reaction. Finally, the reaction was terminated through addition of a mixture of 0.5M triethylamine-acetic acid (pH 7.3) and acetonitrile (25:75) (19 times in volume) and vigorous stirring. The product was analyzed through HPLC. […] Mass analysis detected an [M+H]^+ peak (m/z 659.74) attributed to compound 19, thereby confirming formation of compound 19. Also, in the control reaction employing UDP-Gal, an [M+H]^+ peak (m/z 657.74) attributed to compound 20 was detected through MALDI-TOF-MS, confirming formation of compound 20. […]

Substrate in data set [5]: CC(=O)NC1C(O)[C@H](O[C@@H]2OC(CO)[C@H](O)[C@H](O)C2O)[C@H](CO)O[C@H]1Oc1ccc2c(C)cc(=O)oc2c1
Put plainly: purified protein, by the assay type. The following applies: 25° C., pH 7.5.

Substrate in data set [6]: CC(=O)NC1C(O)[C@H](O[C@@H]2OC(CO)[C@H](F)[C@H](O)C2O)[C@H](CO)O[C@H]1Oc1ccc2c(C)cc(=O)oc2c1
The data set is described as follows: purified protein, by the assay type. The following applies: other: 1/[S]-1/v plotting, 200 μM CMP-NeuAc, 25° C., pH 7.5.

Where [7] appears, read: other: 1/[S]-1/v plotting, 200 μM CMP-NeuAc.
Setting [8] is: other: rat-derived α2,6-sialyltransferase 40 mU/mL, 10 minutes, 1/[S]-1/v plotting.

We go through five molecules from patent US8148112B2, “Sugar chain containing 4-position halogenated galactose and application thereof” (National University Corporation Hokkaido University, priority 2005, dated 2012).

By Km is commonly meant the concentration of substrate that gives half-maximal velocity. In general, Vmax refers to the top rate of the reaction or transport when substrate is in excess.

As to `CC(=O)NC1C(O)[C@H](O[C@@H]2OC(CO)[C@H](F)[C@H](O)C2O)[C@H](CO)O[C@H]1Oc1ccc2c(C)cc(=O)oc2c1` (stereo partly shown) [4MU-4F-LacNAc, 4-methylumbelliferyl 4F—N-acetyllactosamine], the “catalytic efficiency of α2,3-sialyltransferase relative to that with respect to 4MU-LacNAc” value in data set [1] (compared with 4MU-LacNAc) is no more than 6%. Further, the Activity in data set [1] (acceptor concentration 20 μM) was 0.9972 mU/mL; in data set [1] (acceptor concentration 40 μM), 1.756 mU/mL; in data set [1] (acceptor concentration 80 μM), 3.214 mU/mL; in data set [1] (acceptor concentration 150 μM), 4.541 mU/mL; in data set [2] (acceptor concentration 20 μM), 0.07743 mU/mL; in data set [2] (acceptor concentration 40 μM), 0.1561 mU/mL. For the same molecule, the Activity worked out at 0.3223 mU/mL in data set [2] (acceptor concentration 80 μM), 0.4596 mU/mL in data set [2] (acceptor concentration 120 μM) and 0.6348 mU/mL in data set [2] (acceptor concentration 150 μM). For the same molecule, the “sialyltransferase activity of α2,6-sialyltransferase with respect to acceptor” value in data set [2] (compared with 4MU-LacNAc at respective concentrations) is on record as “clearly decreased”.

Regarding `CC(=O)NC1C(O)[C@H](O[C@@H]2OC(CO)[C@H](O)[C@H](O)C2O)[C@H](CO)O[C@H]1Oc1ccc2c(C)cc(=O)oc2c1` (stereo partly shown) [4MU-LacNAc, reference compound], the Activity is listed as 16.20 mU/mL in data set [1] (acceptor concentration 20 μM); 28.50 mU/mL in data set [1] (acceptor concentration 40 μM); 45.36 mU/mL in data set [1] (acceptor concentration 80 μM); 66.23 mU/mL in data set [1] (acceptor concentration 150 μM); 0.8800 mU/mL in data set [2] (acceptor concentration 20 μM); 1.667 mU/mL in data set [2] (acceptor concentration 40 μM). Besides, the Activity came out at 2.504 mU/mL in data set [2] (acceptor concentration 80 μM), 3.734 mU/mL in data set [2] (acceptor concentration 120 μM) and 4.828 mU/mL in data set [2] (acceptor concentration 150 μM).

With `CC(=O)NC(CNc1ccccn1)[C@H](O)C(O[C@@H]1OC(CO)[C@@H](O[C@@H]2OC(CO)[C@H](F)[C@H](O)C2O)[C@H](O)C1NC(C)=O)C(O)CO` (stereo partly shown) [pyridylaminated (PA) 4F-galactosylchitobiose], the “reactivity of α2,3-sialyltransferase” value in data set [3] was “considerably decrease”. In data set [4], the “reactivity of α2,6-sialyltransferase” value is recorded as “considerably decrease”.

B1: rat-derived α2,3-N-sialyltransferase (Rattus norvegicus) (protein)
chain: T1 sequence (Q02734 1-374)
On to B1, for which the values for the Km in data set [5] (setting [7]) and in data set [6] were 129 µM and 188 µM, respectively. For the same molecule, the Vmax in data set [5] (setting [7]) was found to be 146.9 nmol/min/mg; in data set [6] it was 12.60 nmol/min/mg.

B2: rat-derived α2,6-N-sialyltransferase (Rattus norvegicus) (protein)
chain: T2 sequence (P13721 1-403)
B2: in data set [5] (setting [8]), the Michaelis constant (Km) turned out to be 217 µM and the Vmax is 65.24 nmol/min/mg.
